From patent publication US8609862B2, “Use of an adrenal hormone-modifying agent” (Novartis AG, priority 2010, dated 2013)

Key:
[1] = target: T1, Human CYP11B2 (Homo sapiens, UniProt P19099); assay: In vitro human CYP11B2 (aldesterone) assay in NCI-H295R cells; assay type: cell-based; settings: 1 μM Ang II, 24 hr, aldosterone production by SPA
T1 construct: host or cells: NCI-H295R human adrenocortical carcinoma cells, stimulated with 1 uM Ang II
T1 sequence (P19099 25-503): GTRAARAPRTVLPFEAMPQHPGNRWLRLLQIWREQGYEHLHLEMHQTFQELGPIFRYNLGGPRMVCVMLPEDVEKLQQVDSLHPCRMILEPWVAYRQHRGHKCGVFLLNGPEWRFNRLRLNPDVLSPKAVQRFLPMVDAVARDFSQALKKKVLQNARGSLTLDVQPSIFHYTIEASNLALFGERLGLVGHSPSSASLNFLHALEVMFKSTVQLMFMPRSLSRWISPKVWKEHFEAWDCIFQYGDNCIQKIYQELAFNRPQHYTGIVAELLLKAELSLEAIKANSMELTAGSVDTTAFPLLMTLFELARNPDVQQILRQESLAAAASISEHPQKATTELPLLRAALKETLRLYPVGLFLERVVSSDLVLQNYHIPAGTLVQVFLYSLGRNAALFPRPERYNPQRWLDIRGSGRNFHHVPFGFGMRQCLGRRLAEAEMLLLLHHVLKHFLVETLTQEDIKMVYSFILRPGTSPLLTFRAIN
Description: Human adrenocortical carcinoma NCI-H295R cell line was obtained from American Type Culture Collection (Manassas, Va.). […] Anti-mouse PVT scintillation proximity assay (SPA) beads and NBS 96-well plates were obtained from GE Health Sciences (Piscataway, N.J.) and Corning (Acton, Mass.), respectively. Solid black 96-well flat bottom plates were purchased from Costar (Corning, N.Y.). Aldosterone and angiotensin (Ang II) were purchased from Sigma (St. Louis, Mo.). D-[1,2,6,7-^3H(N)]aldosterone was acquired from PerkinElmer (Boston, Mass.). Nu-serum was a product of BD Biosciences (Franklin Lakes, N.J.).
Measurement of aldosterone activity can also be performed using a 96-well plate format. […] The amount of aldosterone in each sample is calculated by comparing with a standard curve generated using known quantities of the hormone.
Inhibition of the release of certain steroids can be used as a measure of the respective enzyme inhibition by the added test compounds. […] The inhibition plot is calculated by fitting a 4-parameter logistic function to the raw data points using the least squares method. The equation of the 4-parameter logistic function is calculated as follows: Y=(d−a)/((1+(x/c)b))+a, where: a=minimum data level, b=gradient, I […], d=maximum data level, x=inhibitor concentration.

[2] = target: T2, CYP11B1 (Rattus norvegicus, UniProt P15393); assay: In vivo CYP11B1 assay: plasma corticosterone concentration (PCC) in ACTH-infused conscious rats; settings: ACTH infusion; for % Reduction from baseline PCC t = 1 h: 1 h after dosing; for % Reduction from baseline PCC 8 h: 8 h after dosing
T2 construct: from tissue; host or cells: whole animal: conscious male Sprague-Dawley rats under ACTH infusion (the adrenal gland as site of the enzyme comes from the background, b5)
T2 sequence (P15393 25-499): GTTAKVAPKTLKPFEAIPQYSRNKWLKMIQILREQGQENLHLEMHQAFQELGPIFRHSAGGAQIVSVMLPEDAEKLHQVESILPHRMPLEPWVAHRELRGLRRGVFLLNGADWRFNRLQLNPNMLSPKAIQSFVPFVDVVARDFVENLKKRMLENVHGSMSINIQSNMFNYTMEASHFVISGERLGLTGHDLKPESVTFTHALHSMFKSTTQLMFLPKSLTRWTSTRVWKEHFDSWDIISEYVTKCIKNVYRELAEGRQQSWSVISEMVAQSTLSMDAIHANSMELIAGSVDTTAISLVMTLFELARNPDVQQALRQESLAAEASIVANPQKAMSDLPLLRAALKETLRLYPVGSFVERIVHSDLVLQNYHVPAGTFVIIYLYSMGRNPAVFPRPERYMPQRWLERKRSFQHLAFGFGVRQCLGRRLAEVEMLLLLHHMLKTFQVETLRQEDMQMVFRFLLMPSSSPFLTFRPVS
Method: (§1) The in vivo effects of compounds on plasma aldosterone concentration (PAC) and plasma glucocorticoid (corticosterone) concentration (PCC) were evaluated in conscious rats.
(§2) Male Sprague-Dawley rats (˜400-600 g body weight) were surgically instrumented with a femoral arterial and venous catheter. The catheters were exteriorized from the lower back through a stainless steel spring and swivel system that enabled the rats to move freely at all times. Rats were allowed at least one week to recover from the surgery before initiating the experiments.
(§3) On the morning of the experiment, a pretreatment blood sample was collected on heparin from the arterial catheter. The blood samples were spun in a refrigerated centrifuge to generate plasma. The plasma was stored frozen at −70° C. until the later measurement of PAC and PCC (by radioimmunoassay). Adrenocorticotropic hormone (ACTH(1-24), referred to herein as ACTH) was then administered as an intravenous (i.v.) bolus (100 ng/kg) followed by a continuous i.v. infusion (30 ng/kg/min) for 9 hours. After one hour of infusion, a baseline (time 0) blood sample was withdrawn from the arterial catheter and processed and stored as described above. The rats were then dosed (typically 0.01 to 100 mg/kg) with the test compound p.o. by oral gavage or parenterally via the arterial catheter (i.a.). Compounds were formulated in an appropriate vehicle (e.g., water (p.o.) or saline (i.a.)) at a physiologically compatible volume (typically 1-2 ml/kg). Additional blood samples were withdrawn at 0.083 (i.a. only), 0.25, 0.5, 1, 2, 3, 4, 5, 6, 7, 8, and 24 hours after dosing with compound and processed and stored as above for later determination of PAC, PCC, and plasma compound concentration (by LC/MS/MS). Oral bioavailability and traditional pharmacokinetic (PK) parameters were estimated from the plasma compound concentrations.
(§4) Based on the plasma compound concentration at each dose, the PK/PD (pharmacodynamic) profiles (reduction of PAC and PCC) of each compound were determined.

[3] = target: T3, CYP11B2 (Rattus norvegicus, UniProt P30099); assay: In vivo assay: plasma aldosterone concentration (PAC) in ACTH-infused conscious rats; settings: ACTH infusion; for % Reduction from baseline PAC t = 1 h: 1 h after dosing; for % Reduction from baseline PAC 8 h: 8 h after dosing
T3 construct: from tissue; host or cells: whole animal: conscious male Sprague-Dawley rats under ACTH infusion (the adrenal gland as site of the enzyme comes from the background, b5)
T3 sequence (P30099 35-510): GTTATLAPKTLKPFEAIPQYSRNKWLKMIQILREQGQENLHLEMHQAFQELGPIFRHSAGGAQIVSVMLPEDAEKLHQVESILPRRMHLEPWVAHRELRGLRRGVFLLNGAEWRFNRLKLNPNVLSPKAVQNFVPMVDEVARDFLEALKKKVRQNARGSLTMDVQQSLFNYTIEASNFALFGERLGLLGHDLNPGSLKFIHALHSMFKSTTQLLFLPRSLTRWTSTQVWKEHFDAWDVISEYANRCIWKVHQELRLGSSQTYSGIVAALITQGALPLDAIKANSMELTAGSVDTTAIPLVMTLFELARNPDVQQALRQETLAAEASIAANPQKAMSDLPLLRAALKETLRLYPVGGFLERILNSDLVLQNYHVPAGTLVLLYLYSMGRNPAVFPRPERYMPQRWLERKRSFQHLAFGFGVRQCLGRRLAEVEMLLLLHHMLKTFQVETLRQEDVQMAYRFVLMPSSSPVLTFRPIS
Method: as §1, §2, §3, §4

IC50 [1]	% Reduction from baseline PCC t = 1 h ([2]; 10 mg/kg p.o.)	% Reduction from baseline PCC 8 h ([2]; 10 mg/kg p.o.)	% Reduction from baseline PAC t = 1 h ([3]; 10 mg/kg p.o.)	% Reduction from baseline PAC 8 h ([3]; 10 mg/kg p.o.)	% Reduction from baseline PCC t = 1 h ([2]; 3 mg/kg i.a.)	% Reduction from baseline PCC 8 h ([2]; 3 mg/kg i.a.)	% Reduction from baseline PAC t = 1 h ([3]; 3 mg/kg i.a.)	% Reduction from baseline PAC 8 h ([3]; 3 mg/kg i.a.)	% Reduction from baseline PCC t = 1 h ([2]; 30 mg/kg i.a.)	% Reduction from baseline PCC 8 h ([2]; 30 mg/kg i.a.)	% Reduction from baseline PAC t = 1 h ([3]; 30 mg/kg i.a.)	% Reduction from baseline PAC 8 h ([3]; 30 mg/kg i.a.)	Structure (SMILES)
1.2 nM	70%	87%	79%	89%	–	–	–	–	–	–	–	–	N#Cc1ccc(C2CCCCc3cncn32)c(Br)c1 (racemic) [3-bromo-4-(6,7,8,9-tetrahydro-5H-imidazo[1,5-a]azepin-5-yl)benzonitrile racemate, 3-bromo-4-(6,7,8,9-tetrahydro-5H-imidazo[1,5-a]azepin-5-yl)benzonitrile]
0.4 nM	–	–	–	–	89%	43%	83%	76%	–	–	–	–	N#Cc1ccc(C2CCCCc3cncn32)c(-c2ccc(F)cc2)c1 (single isomer, unassigned) [4′-fluoro-6-(6,7,8,9-tetrahydro-5H-imidazo[1,5-a]azepin-5-yl)biphenyl-3-carbonitrile]
2.7 nM	–	–	–	–	–	–	–	–	76%	78%	23%	59%	COc1ccc(CN(C)C(=O)C2(c3ccc(C#N)cc3Cl)CCc3cncn32)cc1 (stereo not drawn) [5-(2-chloro-4-cyanophenyl)-N-(4-methoxybenzyl)-N-methyl-6,7-dihydro-5H-pyrrolo[1,2-c]imidazole-5-carboxamide]
